Results taken from patent US11512042B2, “Enamine compounds for absorbance of electromagnetic energy” (Commonwealth Scientific and Industrial Research Organisation, priority 2015, dated 2022).
Several values for one entry are separate records, joined by “and”; a condition that tells them apart may be missing. Equal entries are not always repeated. Marks after values point to notes of the source that are not given here.

Columns and labels:
Type in all cases: physicochemical
[1] = % transmission spectrum of 0.1% solution (breakthrough, steepness); settings: for Steepness: distance in nm over which transmittance increases from 1 to 80%; for Breakthrough (1% T at 0.1%): value in nm where transmittance increases beyond 1%, 0.1% solution
Source text: FIG. 2 is a is a graphical representation of the % transmission of compounds 142 and 143 measured in a 2 mm cuvette as 0.1% solutions in methanol (142 is the left most trace);
(§1) The synthesised benzoyl functionalised compounds and their spectroscopic properties can be seen in table 2 wherein; breakthrough denotes the value in nm where transmittance increases beyond 1%; steepness refers to the distance in nm over which transmittance increases from 1 to 80% (a higher value indicates a less steep transition from absorbing to transmitting and is generally unfavourable); and ^a denotes an average of multiple measurements. As a general comment, it can be noted that the benzoyl substituted compounds gave similar absorbance maxima to the corresponding trifluoroacetyl derivative.

[2] = UV absorbance spectrum in solution (λmax, λcrit, extinction coefficients); settings: for λcrit: critical wavelength; for E (1%, 1 cm): mass extinction coefficient; for ε: molar extinction coefficient, in M-1 cm-1 (unit assumed)
Source text: as §1, with “FIG. 1 is a graphical representation of the absorbance of compounds 142 and 143 measured in a 10 mm cuvette as 0.001% solutions in methanol (142 is the uppermost trace at peak point of approximately 330 nm); The” for “The”

[3] = Photostability protocol: thin film irradiated with xenon arc lamp; settings: 1 hour xenon arc lamp, ratio of absorbance at λmax irradiated vs unirradiated, ^a = average of multiple measurements
Description: 1 mL of a 3% solution of the test compound (30 mg of test compound in 1 mL solvent) was prepared in a solvent mix made up of 50% EtOH and 25% capric/caprylic triglyceride and 25% C12-C15 alkyl benzoate. 50 μL of this solution (containing 1.5 mg of test compound) was added carefully to the centre of a glass microscope slide and the volatile components left to evaporate in the dark for at least 3 hours to give a liquid film. The prepared films were then exposed for 1 hour to an Eimac 150 W xenon arc lamp filtered through Pyrex (15 Amp supply current, samples 19 cm from the lamp) previously allowed to warm up for 15 minutes prior to sample exposure. The irradiation was performed in a fume cupboard where the air flow was sufficient to keep sample T<30° C. One hour's exposure represented a calculated radiation dose (using meter) of approximately 100 MED.
In order to calculate the photostability of the test compounds, the exposed slides were placed in a beaker and rinsed with 2×5 mL EtOH, 1×5 mL MeOH. The combined washings were then added to a 100 mL volumetric flask and made up to 100 mL total volume with methanol. The UV absorbance was then measured in a 10 mm cuvette. The percent stability is measured as the ratio of absorbance at λmax for the irradiated sample compared to the unirradiated sample.
The thin films are a good surrogate for testing the stability of a candidate in, for example, a sunscreen formulation as they use cosmetic emollients as solvent and are formed at cosmetically relevant concentrations.

In the case of `COC(=O)c1ccc2c(c1)CCN2C=C(C(=O)C(C)(C)C)c1ccc(C(C)(C)C)cc1` [Compound 296], the Steepness [1] is reported as 16 nm, the “Breakthrough (1% T at 0.1%)” value [1] is reported as 401 nm and the λmax [2] is reported as 368 nm. For the same compound, the λcrit [2] was 384 nm, the “E (1%, 1 cm)” value [2] was 1213 and the ε [2] was 50838. It also gave a Photostability [3] of 73%.
With `CCOC(=O)C(=O)/C(=C/N(c1ccccc1)c1ccccc1)c1ccccc1` [Compound 237] the Steepness [1] was 39 nm, the “Breakthrough (1% T at 0.1%)” value [1] was 400 nm and the λmax [2] was 348 nm. For the same compound, the λcrit [2] was 380 nm, the “E (1%, 1 cm)” value [2] was 775 and the ε [2] was 28737. The Photostability [3] was 83%.
In the case of `CN(C)C(=O)C(=O)/C(=C/N(c1ccccc1)c1ccccc1)c1ccccc1` [Compound 257], the Steepness [1] is reported as 32 nm, the “Breakthrough (1% T at 0.1%)” value [1] is reported as 394 nm and the λmax [2] is reported as 346 nm. For the same compound, the λcrit [2] was 378 nm, the “E (1%, 1 cm)” value [2] was 382 and the ε [2] was 14163. The Photostability [3] was 85%.
In the case of `CCN(/C=C(/C(=O)c1c(C)cc(C)cc1C)c1ccccc1)c1ccccc1` [Compound 255], the Steepness [1] is reported as 34 nm, the “Breakthrough (1% T at 0.1%)” value [1] is reported as 364 nm and the λmax [2] is reported as 323 nm. For the same compound, the λcrit [2] was 351 nm, the “E (1%, 1 cm)” value [2] was 798 and the ε [2] was 29450. The Photostability [3] was 83^a %.
For `Cc1ccc(C(=O)/C(=C/N2CCc3ccccc32)c2ccccc2)cc1` [Compound 272], the Steepness [1] was 35 nm, the “Breakthrough (1% T at 0.1%)” value [1] was 421 nm and the λmax [2] was 362 nm. For the same compound, the λcrit [2] was 386 nm, the “E (1%, 1 cm)” value [2] was 887 and the ε [2] was 30075. It also gave a Photostability [3] of 80%.
With `CCN(/C=C(/C(=O)c1ccccc1OC)c1ccccc1)c1ccccc1` [Compound 276] the Steepness [1] was 40 nm, the “Breakthrough (1% T at 0.1%)” value [1] was 379 nm and the λmax [2] was 327 nm. The λcrit [2] was 366 nm, the “E (1%, 1 cm)” value [2] was 711 and the ε [2] was 25385. For the same compound, the Photostability [3] was 56%.
With `CCN(/C=C(/C(=O)c1ccc(S(=O)(=O)N(C)C)cc1)c1ccccc1)c1ccccc1` [Compound 264] the Steepness [1] was 46 nm, the “Breakthrough (1% T at 0.1%)” value [1] was 403 nm and the λmax [2] was 340 nm. The λcrit [2] was 381 nm, the “E (1%, 1 cm)” value [2] was 433 and the ε [2] was 18791. It also gave a Photostability [3] of 20%.
In the case of `Cc1ccccc1C(=O)/C(=C/N(c1ccccc1)c1ccccc1)c1ccccc1` [Compound 250], the Steepness [1] is reported as 37 nm, the “Breakthrough (1% T at 0.1%)” value [1] is reported as 389 nm and the λmax [2] is reported as 341 nm. For the same compound, the λcrit [2] was 373 nm, the “E (1%, 1 cm)” value [2] was 738 and the ε [2] was 28714. For the same compound, the Photostability [3] was 60%.
With `CC(C)(C)C(=O)/C(=C/N1CCc2cc(C(=O)OCCCOC(=O)c3ccc4c(c3)CCN4/C=C(/C(=O)C(C)(C)C)c3ccccc3)ccc21)c1ccccc1` [Compound 304] the Steepness [1] was 19 nm, the “Breakthrough (1% T at 0.1%)” value [1] was 401 nm and the λmax [2] was 365 nm. For the same compound, the λcrit [2] was 384 nm, the “E (1%, 1 cm)” value [2] was 1023 and the ε [2] was 75535. The Photostability [3] was 90% and 92%.
In the case of `CCCCC(CC)COC(=O)c1ccc2c(c1)CCN2/C=C(/C(=O)C(C)(C)C)c1ccc(C#N)cc1` (stereo not drawn) [Compound 310], the Steepness [1] is reported as 22 nm, the “Breakthrough (1% T at 0.1%)” value [1] is reported as 402 nm and the λmax [2] is reported as 368 nm. For the same compound, the λcrit [2] was 385 nm, the “E (1%, 1 cm)” value [2] was 1039 and the ε [2] was 50502. The Photostability [3] was 78% and 81%.
For `CCOC(=O)C(=O)/C(=C/N(CC)CC)c1ccccc1` [Compound 260], the Steepness [1] was 38 nm, the “Breakthrough (1% T at 0.1%)” value [1] was 363 nm and the λmax [2] was 313 nm. For the same compound, the λcrit [2] was 352 nm, the “E (1%, 1 cm)” value [2] was 726 and the ε [2] was 19983. It also gave a Photostability [3] of 40%.
For `COC(=O)c1ccc2c(c1)CCN2/C=C(/C(=O)C(=O)OC(C)(C)C(=O)OC)c1ccccc1` [Compound 279], the Steepness [1] was 32 nm, the “Breakthrough (1% T at 0.1%)” value [1] was 412 nm and the λmax [2] was 368 nm. The λcrit [2] was 386 nm, the “E (1%, 1 cm)” value [2] was 1304 and the ε [2] was 58842. It also gave a Photostability [3] of 32%.
